Results published in PubChem BioAssay AID2060904 (Molecular Pharmacology Branch, DTP, NCI, 2025).

Tested on: 349418-098-R-PDC complex spheroid viability
Experiment: Anticancer human tumor 349418-098-R-PDC patient-derived lung adenocarcinoma cell line growth inhibition [RAS]
Settings: for IC50: curve of first compound; for viability, T/C: stronger effect = lower value
Outline: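 Tumour cells grown as complex spheroids with HUVEC endothelial cells and mesenchymal stem cells, treated with RAS pathway inhibitor combinations. Each agent spans half-log steps from near clinical Cmax, or 10 microM where Cmax is unknown.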
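Also: spheroids exposed to compound for seven days before viability readout.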

## CC(=O)OC12COC1CC(O)C1(C)C(=O)C(O)C3=C(C)C(OC(=O)C(O)C(NC(=O)OC(C)(C)C)c4ccccc4)CC(O)(C(OC(=O)c4ccccc4)C21)C3(C)C (centres undefined) + CCn1c(-c2cccnc2C(C)OC)c2c3cc(ccc31)N1CCOC(CC(NC(=O)C(C(C)C)N(C)C(=O)C3(F)CCN(C(=O)C#CC(C)(C)N(C)C)CC3)C(=O)N3CCCC(N3)C(=O)OCC(C)(C)C2)C1
Second compound 0.000949 µM
  IC50: < 31.6 nM
Second compound 0.003 µM
  IC50: < 31.6 nM
Second compound 0.00949 µM
  IC50: < 31.6 nM
Second compound 0.03 µM
  IC50: < 31.6 nM
Second compound 0.0949 µM
  IC50: < 31.6 nM
Second compound 0.3 µM
  IC50: < 31.6 nM
Second compound 0.000949 µM, first compound 0.0316 µM
  viability, T/C: 13.4%
Second compound 0.000949 µM, first compound 0.1 µM
  viability, T/C: 13%
Second compound 0.000949 µM, first compound 0.316 µM
  viability, T/C: 15.4%
Second compound 0.000949 µM, first compound 1 µM
  viability, T/C: 16.4%
Second compound 0.000949 µM, first compound 3.16 µM
  viability, T/C: 15.6%
Second compound 0.000949 µM, first compound 10 µM
  viability, T/C: 17.3%
Second compound 0.003 µM, first compound 0.0316 µM
  viability, T/C: 13.8%
Second compound 0.003 µM, first compound 0.1 µM
  viability, T/C: 13.9%
Second compound 0.003 µM, first compound 0.316 µM
  viability, T/C: 10.9%
Second compound 0.003 µM, first compound 1 µM
  viability, T/C: 13.8%
Second compound 0.003 µM, first compound 3.16 µM
  viability, T/C: 16.8%
Second compound 0.003 µM, first compound 10 µM
  viability, T/C: 16.9%
Second compound 0.00949 µM, first compound 0.0316 µM
  viability, T/C: 13.2%
Second compound 0.00949 µM, first compound 0.1 µM
  viability, T/C: 13.6%
Second compound 0.00949 µM, first compound 0.316 µM
  viability, T/C: 10.2%
Second compound 0.00949 µM, first compound 1 µM
  viability, T/C: 13.5%
Second compound 0.00949 µM, first compound 3.16 µM
  viability, T/C: 17.4%
Second compound 0.00949 µM, first compound 10 µM
  viability, T/C: 15.9%
Second compound 0.03 µM, first compound 0.0316 µM
  viability, T/C: 12.6%
Second compound 0.03 µM, first compound 0.1 µM
  viability, T/C: 13.3%
Second compound 0.03 µM, first compound 0.316 µM
  viability, T/C: 16.2%
Second compound 0.03 µM, first compound 1 µM
  viability, T/C: 16.2%
Second compound 0.03 µM, first compound 3.16 µM
  viability, T/C: 17.4%
Second compound 0.03 µM, first compound 10 µM
  viability, T/C: 12.6%
Second compound 0.0949 µM, first compound 0.0316 µM
  viability, T/C: 12.2%
Second compound 0.0949 µM, first compound 0.1 µM
  viability, T/C: 13.3%
Second compound 0.0949 µM, first compound 0.316 µM
  viability, T/C: 15.7%
Second compound 0.0949 µM, first compound 1 µM
  viability, T/C: 15.9%
Second compound 0.0949 µM, first compound 3.16 µM
  viability, T/C: 16.9%
Second compound 0.0949 µM, first compound 10 µM
  viability, T/C: 16.8%
Second compound 0.3 µM, first compound 0.0316 µM
  viability, T/C: 13%
Second compound 0.3 µM, first compound 0.1 µM
  viability, T/C: 13.2%
Second compound 0.3 µM, first compound 0.316 µM
  viability, T/C: 14.7%
Second compound 0.3 µM, first compound 1 µM
  viability, T/C: 15%
Second compound 0.3 µM, first compound 3.16 µM
  viability, T/C: 19.1%
Second compound 0.3 µM, first compound 10 µM
  viability, T/C: 21.1%

## CCc1c2c(nc3ccc(O)cc13)-c1cc3c(c(=O)n1C2)COC(=O)[C@]3(O)CC + CCn1c(-c2cccnc2C(C)OC)c2c3cc(ccc31)N1CCOC(CC(NC(=O)C(C(C)C)N(C)C(=O)C3(F)CCN(C(=O)C#CC(C)(C)N(C)C)CC3)C(=O)N3CCCC(N3)C(=O)OCC(C)(C)C2)C1
Second compound 0.000949 µM
  IC50: 2.21 nM
Second compound 0.003 µM
  IC50: 2.57 nM
Second compound 0.00949 µM
  IC50: 2.86 nM
Second compound 0.03 µM
  IC50: 2.62 nM
Second compound 0.0949 µM
  IC50: 2.42 nM
Second compound 0.3 µM
  IC50: 1.43 nM
Second compound 0.000949 µM, first compound 0.000949 µM
  viability, T/C: 77.2%
Second compound 0.000949 µM, first compound 0.003 µM
  viability, T/C: 40.1%
Second compound 0.000949 µM, first compound 0.00949 µM
  viability, T/C: 10.9%
Second compound 0.000949 µM, first compound 0.03 µM
  viability, T/C: 4.7%
Second compound 0.000949 µM, first compound 0.0949 µM
  viability, T/C: 2.54%
Second compound 0.000949 µM, first compound 0.3 µM
  viability, T/C: 2.43%
Second compound 0.003 µM, first compound 0.000949 µM
  viability, T/C: 99.5%
Second compound 0.003 µM, first compound 0.003 µM
  viability, T/C: 42.5%
Second compound 0.003 µM, first compound 0.00949 µM
  viability, T/C: 13.3%
Second compound 0.003 µM, first compound 0.03 µM
  viability, T/C: 6.22%
Second compound 0.003 µM, first compound 0.0949 µM
  viability, T/C: 2.99%
Second compound 0.003 µM, first compound 0.3 µM
  viability, T/C: 2.08%
Second compound 0.00949 µM, first compound 0.000949 µM
  viability, T/C: 98.7%
Second compound 0.00949 µM, first compound 0.003 µM
  viability, T/C: 47.9%
Second compound 0.00949 µM, first compound 0.00949 µM
  viability, T/C: 15.6%
Second compound 0.00949 µM, first compound 0.03 µM
  viability, T/C: 5.26%
Second compound 0.00949 µM, first compound 0.0949 µM
  viability, T/C: 2.91%
Second compound 0.00949 µM, first compound 0.3 µM
  viability, T/C: 2.15%
Second compound 0.03 µM, first compound 0.000949 µM
  viability, T/C: 86.4%
Second compound 0.03 µM, first compound 0.003 µM
  viability, T/C: 45.1%
Second compound 0.03 µM, first compound 0.00949 µM
  viability, T/C: 14.1%
Second compound 0.03 µM, first compound 0.03 µM
  viability, T/C: 5.2%
Second compound 0.03 µM, first compound 0.0949 µM
  viability, T/C: 2.57%
Second compound 0.03 µM, first compound 0.3 µM
  viability, T/C: 2.19%
Second compound 0.0949 µM, first compound 0.000949 µM
  viability, T/C: 94.7%
Second compound 0.0949 µM, first compound 0.003 µM
  viability, T/C: 39.9%
Second compound 0.0949 µM, first compound 0.00949 µM
  viability, T/C: 11.3%
Second compound 0.0949 µM, first compound 0.03 µM
  viability, T/C: 5.33%
Second compound 0.0949 µM, first compound 0.0949 µM
  viability, T/C: 2.49%
Second compound 0.0949 µM, first compound 0.3 µM
  viability, T/C: 1.47%
Second compound 0.3 µM, first compound 0.000949 µM
  viability, T/C: 65.3%
Second compound 0.3 µM, first compound 0.003 µM
  viability, T/C: 22.4%
Second compound 0.3 µM, first compound 0.00949 µM
  viability, T/C: 7.03%
Second compound 0.3 µM, first compound 0.03 µM
  viability, T/C: 4.31%
Second compound 0.3 µM, first compound 0.0949 µM
  viability, T/C: 2.68%
Second compound 0.3 µM, first compound 0.3 µM
  viability, T/C: 1.47%
